Reference: patent US20070010525A1, “Method and compositions for modulating neuropeptide hormone secretion” (priority 2005, published 2007)
Each block holds one compound with its values, some of them ahead of it.

What was measured:
pituitary nerve terminal = settings: after 5 or 10 seconds of high frequency stimulation; control ~30%; cited from earlier work
[1] = tested on: BK channels in pituitary nerve terminals; test: Patch clamp recordings of potassium current in posterior pituitary slices after photolysis of caged cGMP; type: cell-based, rats; settings: slices bathed in 15 μM sildenafil, control recovered in about 3 minutes
Experimental: Posterior pituitary. Experiments were performed on posterior pituitary glands removed from rats of either sex, ranging in age from 1-3 months. Animals were rendered unconscious by inhalation of CO2, and killed by decapitation. Glands were removed rapidly to maintain tissue health, and transferred to physiological saline (in mM: 125 NaCl, 4 KCl, 26 NaHCO3, 1.25 NaH2PO4, 2 CaCl2, 1 MgCl2, 10 glucose) bubbled with 95% O2/5% CO2 (Jackson et al., 1991, Action potential broadening and frequency-dependent facilitation of calcium signals in pituitary nerve terminals. Proc. Roy. Soc. Lond. 88:380-384). For oxytocin release experiments the pituitary was kept intact. For electrophysiological recordings, slices of posterior pituitary were cut at 70 μm with a vibratome and maintained in physiological saline. Electrophysiology. Recordings of K^+ current were made with patch pipettes filled with (in mM) 130 KCl, 10 NaCl, 10 HEPES, 4 Mg-ATP, 0.3 GTP, 5 EGTA, pH 7.3. Individual nerve terminals were identified in an upright DIC microscope, Jackson, 1993. Passive current flow and morphology in the terminal arborizations of the posterior pituitary. J. Neurophysiol. 69, 692-702, and voltage or current clamped with an EPC-7 patch clamp amplifier. […] The component of potassium current corresponding to BK channels (seen at the end of a 200 msec voltage step from −80 to 50 mV) was determined for each pulse. […]

[2] = tested on: posterior pituitary glands; test: Oxytocin release from whole posterior pituitary glands (enzyme immunoassay); type: cell-based, rats
Experimental: Posterior pituitary. Experiments were performed on posterior pituitary glands removed from rats of either sex, ranging in age from 1-3 months. Animals were rendered unconscious by inhalation of CO2, and killed by decapitation. Glands were removed rapidly to maintain tissue health, and transferred to physiological saline (in mM: 125 NaCl, 4 KCl, 26 NaHCO3, 1.25 NaH2PO4, 2 CaCl2, 1 MgCl2, 10 glucose) bubbled with 95% O2/5% CO2 (Jackson et al., 1991, Action potential broadening and frequency-dependent facilitation of calcium signals in pituitary nerve terminals. Proc. Roy. Soc. Lond. 88:380-384). For oxytocin release experiments the pituitary was kept intact. For electrophysiological recordings, slices of posterior pituitary were cut at 70 μm with a vibratome and maintained in physiological saline. Oxytocin release. Whole pituitary glands with attached axon bundle were placed in a chamber perfused with oxygenated physiological saline. Perfusion was stopped at ˜15 min intervals during measurements, when the physiological saline was substituted with a solution of a similar composition, but with the addition of 20 mM HEPES and NaHCO3, and NaH2PO4 reduced to zero. The pH was adjusted to 7.3 with NaOH. Basal release was measured after a 5 min waiting period (immediately before the stimulus application). The axon bundle was stimulated via a large-diameter, monopolar extracellular glass electrode. Oxytocin release was evoked by a series of 5 trains of 0.2 msec, 0.2 mA current pulses with a frequency of 25 Hz and a duration of 10 seconds. Trains were applied at 1 min intervals. Evoked release was measured 5 minutes after the end of stimulation by gently mixing the bath with a micropipette and collecting 10-20 μL samples in the vicinity of the tissue. Three separate samples were collected for each measurement (including basal release control). Perfusion of the oxygenated physiological saline was restored immediately after sample collection and sildenafil was added to the bath solution for 30-60 min. Recordings of the sildenafil effect on basal and evoked release were then repeated as described above. To control for possible rundown of release, measurements of sildenafil effects were in some cases substituted by the second control measurements. Oxytocin was measured in collected fluid using the Correlate-EIA enzyme immunoassay kit (Assay Designs, Ann Arbor, Mich.). Oxytocin concentration was inversely proportional to the yellow color generated by the immunoassay and was scanned into the computer using an automated micro plate reader at 405 nm. Actual oxytocin concentration was determined with a standard curve measured for each sample plate.

[3] = 7-NI 100 μM with sildenafil 10 μM

Structure (SMILES): Nc1nc2c(ncn2[C@@H]2O[C@@H]3COP(=O)(O)O[C@H]3[C@H]2O)c(=O)[nH]1 [cGMP]
success rate of stimulus pulses evoking action potentials (pituitary nerve terminal): ~60%

basal oxytocin release ([2]; sildenafil 10 μM, 30-60 min in bath): insignificant increase
evoked oxytocin release ([2]; sildenafil 10 μM, electrical stimulation of axon bundle): large and significant increase
Structure (SMILES): CCCc1nn(C)c2c(=O)[nH]c(-c3cc(S(=O)(=O)N4CCN(C)CC4)ccc3OCC)nc12 [Sildenafil, 5-[2-ethoxy-5-(4-methyl-1-piperazinylsulphonyl)phenyl]-1-methyl-3-n-propyl-1,6-dihydro-7H-pyrazolo [4,3-d]pyrimidin-7-one]
recovery of the cGMP-induced increase in potassium current [1]: greatly slowing the recovery
recovery of the cGMP-induced increase in potassium current ([1]; listed as sildenafil): failed to recover

effect on sildenafil-induced increase in basal oxytocin release [2, 3]: blocked
effect on sildenafil-induced increase in evoked oxytocin release [2, 3]: blocked
Structure (SMILES): O=[N+]([O-])c1cccc2cn[nH]c12 [7-NI, 7-nitorindazol]
